Test results reported in US20240398844A1, “PHENYLCOUMARINS FOR TREATING INFLAMMATION” (Ohio State Innovation Foundation, priority 2021, published 2024).
Each block holds one molecule with its values, some of them ahead of it.

What was measured:
PPAR-γ = molecular target: T1, PPAR-γ (Homo sapiens, UniProt P37231); experiment: PPAR-γ ELISA Assay in HeLa cells (in vitro PPAR-γ assay); type: cell-based; conditions: 50 μg/mL; for activation at 50 µg/mL: Table 2; for % Activation PPAR-γ: Table 4
T1 construct: endogenous in cells; host or cells: HeLa
T1 sequence (P37231 1-505): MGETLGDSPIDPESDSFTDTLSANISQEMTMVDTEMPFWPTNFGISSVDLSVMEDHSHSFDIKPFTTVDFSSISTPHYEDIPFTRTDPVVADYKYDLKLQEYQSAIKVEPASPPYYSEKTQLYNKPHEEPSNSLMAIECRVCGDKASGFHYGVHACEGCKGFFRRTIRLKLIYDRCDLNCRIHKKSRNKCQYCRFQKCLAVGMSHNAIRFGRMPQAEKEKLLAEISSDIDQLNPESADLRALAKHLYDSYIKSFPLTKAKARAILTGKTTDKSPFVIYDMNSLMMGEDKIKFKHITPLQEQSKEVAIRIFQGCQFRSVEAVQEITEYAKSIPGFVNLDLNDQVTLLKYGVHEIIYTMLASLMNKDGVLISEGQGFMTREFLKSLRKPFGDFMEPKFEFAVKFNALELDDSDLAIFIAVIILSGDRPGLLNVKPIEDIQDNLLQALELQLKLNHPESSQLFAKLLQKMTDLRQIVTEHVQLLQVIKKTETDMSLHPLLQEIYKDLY
Method: In addition to the Western blot, the diverse library was also screened in the in vitro PPAR-γ assay. […] The compounds were tested at 50 μg/mL according to the protocol detailed in section 3.2.3.

HbA1C = experiment: Diabetic zebrafish Western blot, HbA1C expression; type: in vivo; conditions: diabetic zebrafish, 10 μM, library screen, FIG. 2 / FIG. 11
Method: (§1) Alloxan-induced diabetic zebrafish were treated with compounds for immunoblot to validate the newly developed animal model, determine the antidiabetic potential of natural product leads, evaluate glucose metabolism, and discover possible mechanisms of action.
(§2) At 72 hpf, naturally dechorionated zebrafish were sorted into a 24-well microplate with 10 fish per well. Type 2 diabetes was induced with the diabetogenic agent alloxan at a dose of 0.5 mg/mL in system water for 3 hours. […] After 3 hours of treatment with natural product samples, 10 mg/mL D-glucose was administered in system water for 30 minutes, followed by 1 hour in fresh system water to metabolize the glucose and natural product leads. Upon completion of the 4-phase treatment cycle, zebrafish treatment groups were snap frozen into individual microcentrifuge tubes on dry ice, stored overnight at −80° C., thawed, homogenized with 2 μL PBS per animal, and centrifuged at 4° C. for 1 hour at 17,000 rpm. Protein content of homogenate supernatant was determined using the Pierce BCA Protein Assay kit (Pierce Biotechnology) and bovine serum albumin (BSA) standard curve. Absorbance of protein solutions from zebrafish homogenates and serial dilutions of the BSA standard were measured at 544 nm, using a FLUOstar Optima plate reader (BMG Labtechnologies GmbH, Inc.). Homogenates were analyzed by Western blot. Equal amounts of protein (20 μg) were combined with 4× lithium dodecyl sulphate (LDS) loading buffer (NuPAGE, Life Technologies, Carlsbad, CA, USA), brought to volume (15 μL) with PBS, and heated to 95° C. for 5 minutes. Proteins were resolved using NuPAGE Bis-Tris 4-12% gradient sodium dodecyl sulfate polyacrylamide gel electrophoresis (SDS-PAGE) gels together with SeeBlue Plus2 Pre-Stained Standard Ladder (Life Technologies).
(§3) Electrophoresis was performed using NuPAGE MES SDS Running Buffer and XCell SureLock Mini-Cell Electrophoresis System (Life Technologies). Separated proteins were transferred from the gel to a polyvinylidene fluoride (PVDF) membrane using tris buffered saline with Tween-20 (TBST) buffer. The blots were blocked in 3% BSA in TBST and subsequently probed using primary antibodies (1:1000 in 1% BSA in TBST) against each target overnight (Table 1). The secondary, horseradish peroxidase (HRP) conjugated antibodies (1:2000) were obtained from Santa Cruz Biotechnology Inc., (Santa Cruz, CA, USA). Conjugated antibodies were detected using SuperSignal West Femto chemiluminescent substrate from Pierce Biotechnology. Western blots were visualized, and images captured using a luminometer and LumiAnalyst 3.0 software (Boehringer-Mannheim, Mannheim, Germany). Band density was quantified for proteins of interest using ImageJ Gel Analysis.
(§4) In the case of duplicate blots, the band density results were expressed in bar graphs as the mean±standard error of the mean (SEM) of two independent experiments. Due to the labor- and time-intensive aspect of Western blot analysis with multiple target proteins, a maximum of two independent immunoblot experiments were performed per compared sample set. […] Additionally, treatment groups were also evaluated versus the diabetic, untreated control group for significance by Student's f-test and indicated in the bar graphs with p values represented by *p<0.05, **p<0.01, and ***p<0.001. […]

PEPCK = experiment: Diabetic zebrafish Western blot, PEPCK expression; type: in vivo; conditions: 10 μM, library screen, FIG. 4 / FIG. 11
Method: as §1
(§5) At 72 hpf, naturally dechorionated zebrafish were sorted into a 24-well microplate with 10 fish per well. Type 2 diabetes was induced with the diabetogenic agent alloxan at a dose of 0.5 mg/mL in system water for 3 hours. The incubation solution was changed to 0.01% DMSO in system water with compounds at concentrations of 20 μg/mL or […], respectively. After 3 hours of treatment with natural product samples, 10 mg/mL D-glucose was administered in system water for 30 minutes, followed by 1 hour in fresh system water to metabolize the glucose and natural product leads. Upon completion of the 4-phase treatment cycle, zebrafish treatment groups were snap frozen into individual microcentrifuge tubes on dry ice, stored overnight at −80° C., thawed, homogenized with 2 μL PBS per animal, and centrifuged at 4° C. for 1 hour at 17,000 rpm. Protein content of homogenate supernatant was determined using the Pierce BCA Protein Assay kit (Pierce Biotechnology) and bovine serum albumin (BSA) standard curve. Absorbance of protein solutions from zebrafish homogenates and serial dilutions of the BSA standard were measured at 544 nm, using a FLUOstar Optima plate reader (BMG Labtechnologies GmbH, Inc.). Homogenates were analyzed by Western blot. Equal amounts of protein (20 μg) were combined with 4× lithium dodecyl sulphate (LDS) loading buffer (NuPAGE, Life Technologies, Carlsbad, CA, USA), brought to volume (15 μL) with PBS, and heated to 95° C. for 5 minutes. Proteins were resolved using NuPAGE Bis-Tris 4-12% gradient sodium dodecyl sulfate polyacrylamide gel electrophoresis (SDS-PAGE) gels together with SeeBlue Plus2 Pre-Stained Standard Ladder (Life Technologies).
as §3, with “Western blots were visualized, and images captured using a luminometer and LumiAnalyst 3.0 software (Boehringer-Mannheim, Mannheim, Germany).” left out, “Analysis. […]” for “Analysis.”

NFκB p65 = experiment: Diabetic zebrafish Western blot, NFκB expression; type: in vivo; conditions: diabetic zebrafish, 10 μM, FIG. 5
Method: as §1, §2, §3, §4

GLUT-4 = experiment: Diabetic zebrafish Western blot, GLUT-4 expression; type: in vivo; conditions: 10 μM, FIG. 5
Method: as §1
as §5, with “Proteins were resolved using NuPAGE Bis-Tris 4-12% gradient sodium dodecyl sulfate polyacrylamide gel electrophoresis (SDS-PAGE) gels together with SeeBlue Plus2 Pre-Stained Standard Ladder (Life Technologies).” left out
Electrophoresis was performed using NuPAGE MES SDS Running Buffer and XCell SureLock Mini-Cell Electrophoresis System (Life Technologies). […] Conjugated antibodies were detected using SuperSignal West Femto chemiluminescent substrate from Pierce Biotechnology. […] Band density was quantified for proteins of interest using ImageJ Gel Analysis. […]

SMILES: Oc1cccc(CCc2ccc3c(c2)OCO3)c1 [Compound 16]
activation at 50 µg/mL (PPAR-γ): 0%

SMILES: COc1ccc(-c2cc(=O)c3c(O)cc(O)cc3o2)cc1 [Compound 17]
activation at 50 µg/mL (PPAR-γ): 0%

SMILES: COc1cc(O)c2c(c1)OC(c1ccc(O)cc1)CC2=O (stereo not drawn) [Compound 19]
activation at 50 µg/mL (PPAR-γ): 77% | HbA1C expression (Western blot band density) (HbA1C): lowest glycated hemoglobin levels

SMILES: O=c1cc(-c2ccc(O)cc2)oc2c([C@H]3OC(CO)[C@@H](O)[C@H](O)C3O)c(O)cc(O)c12 (stereo partly drawn) [Compound 21]
activation at 50 µg/mL (PPAR-γ): 57% | HbA1C expression (Western blot band density) (HbA1C): lowest glycated hemoglobin levels

activation at 50 µg/mL (PPAR-γ): 21% | % Activation PPAR-γ (PPAR-γ): 21%
SMILES: COc1cc(O[C@@H]2OC(CO)[C@H](O)[C@H](O)C2O)c2c(-c3ccc(O)c(O)c3)cc(=O)oc2c1 (stereo partly drawn) [Compound 22]
PEPCK expression (Western blot band density) (PEPCK): 31>rosiglitazone>22>23 and greatest PEPCK expression | NFκB expression (Western blot) (NFκB p65): excellent inhibition of NFκB expression | GLUT-4 expression (Western blot) (GLUT-4): strong GLUT-4 expression

activation at 50 µg/mL (PPAR-γ): 145% | % Activation PPAR-γ (PPAR-γ): 145% | PPAR-γ activity in the in vitro assay (in words) (PPAR-γ; versus positive control rosiglitazone): top performers
SMILES: COc1cc(O[C@@H]2OC(CO)[C@@H](O)[C@H](O)C2O)c2c(-c3ccc(O)c(O)c3)cc(=O)oc2c1 (stereo partly drawn) [Compound 23]
PEPCK expression (Western blot band density) (PEPCK): 31>rosiglitazone>22>23 | NFκB expression (Western blot) (NFκB p65): excellent inhibition of NFκB expression | GLUT-4 expression (Western blot) (GLUT-4): strong GLUT-4 expression

SMILES: CC(C)(O)CCC(=O)[C@](C)(O)[C@H]1[C@H](O)C[C@@]2(C)C3CC=C4[C@@H](CC(O)[C@H](O[C@@H]5OC(CO)[C@@H](O)[C@H](O)C5O)C4(C)C)C3C(=O)C[C@@]12C (stereo partly drawn) [Compound 27]
activation at 50 µg/mL (PPAR-γ): 65%

SMILES: C[C@]12C[C@@H](O)CC3(CCC4[C@@](C)(CCC[C@@]4(C)C(=O)O[C@@H]4OC(CO)[C@@H](O[C@@H]5OC[C@H](O)[C@H](O)C5O)[C@H](O)C4O)C3C(=O)O1)C2 (stereo partly drawn) [Compound 28]
activation at 50 µg/mL (PPAR-γ): 0%

SMILES: C=C1CC[C@H]2C(=C)CC[C@H]3C(=C)C(=O)O[C@@H]3[C@@H]12 [Compound 29]
activation at 50 µg/mL (PPAR-γ): 0%

SMILES: C/C=C/C1=CC=C/C(=C2/C(=O)CCNC2=O)O1 [Compound 30]
activation at 50 µg/mL (PPAR-γ): 37%
